Test results reported in ChEMBL document CHEMBL3272031, “Inhibition of dihydrofolate reductase. Structure-activity correlations of quinazolines” (J Med Chem, 1976).

Target: Dihydrofolate reductase (Rattus norvegicus) (UniProt Q920D2)

Structure (SMILES)	log(1/C)
Cc1c(NC(=O)Cc2ccc(Cl)c(Cl)c2)ccc2nc(N)nc(N)c12	7.77
Nc1nc(N)c2c(Sc3ccc4ccccc4c3)cccc2n1	6.92
Nc1nc(N)c2cc(NC(=O)CCc3ccc(Cl)cc3)ccc2n1	7.33
Nc1nc(O)c2cc(Sc3ccc(Cl)c(Cl)c3)ccc2n1	6.92
Nc1nc(N)c2c(Cl)c(NC(=O)Cc3cccc(Br)c3)ccc2n1	8.12
Nc1nc(N)c2cc(NC(=O)Cc3cccc(C(F)(F)F)c3)ccc2n1	7.02
Cc1c(NC(=O)Cc2ccc3ccccc3c2)ccc2nc(N)nc(N)c12	8.38
Cc1c(NC(=O)COc2ccc3ccccc3c2)ccc2nc(N)nc(N)c12	7.82
Nc1nc(O)c2c(Cl)cccc2n1	4.66
O=c1[nH]cnc2ccccc12	3.62
Nc1nc(N)c2c(n1)CCCC2	5.13
Nc1nc2ccccc2c(=O)[nH]1	4.31
Nc1ncnc2ccc([S+]([O-])c3ccc4ccccc4c3)cc12 (stereo unspecified)	4.82
Nc1nc(S)c2cc(S(=O)(=O)c3ccc4ccccc4c3)ccc2n1	7.6
Nc1nc(O)c2c(n1)CCCC2	3.96
Nc1nc(S)c2cc(Sc3ccc4ccccc4c3)ccc2n1	6.64
Nc1nc(O)c2ccc(C(F)(F)F)cc2n1	4.35
Nc1nc(N)c2cc(NC(=O)Cc3ccc(Cl)cc3)ccc2n1	7.64
Nc1nc(O)nc2ccc(Sc3ccc4ccccc4c3)cc12	5.77
CC(=O)Nc1nc(O)c2cc(S(=O)(=O)c3ccc4ccccc4c3)ccc2n1	6.11
Nc1nc(O)c2cc(S(=O)(=O)c3ccc4ccccc4c3)ccc2n1	7.96
Cc1cccc2nc(N)nc(N)c12	6.09

Structure (SMILES)	log(1/C)
Nc1nc(N)c2c(S(=O)(=O)c3ccc4ccccc4c3)cccc2n1	4.82
Nc1ncnc2ccc(Sc3ccc4ccccc4c3)cc12	4.68
NCc1ccc2nc(N)nc(N)c2c1	5.03
Nc1nc(S)c2ccccc2n1	4.37
Nc1nc(N)c2cc(Sc3ccc4ccccc4c3)ccc2n1	8.15
Oc1nc(S)nc2ccc(Sc3ccc4ccccc4c3)cc12	5
Nc1nc(N)c2c(Sc3ccc(Cl)c(Cl)c3)cccc2n1	6.8
Cc1c(NC(=O)CSc2ccc3ccccc3c2)ccc2nc(N)nc(N)c12	8.27
Cc1c(NC(=O)C(Sc2ccc3ccccc3c2)C(C)C)ccc2nc(N)nc(N)c12 (stereo unspecified)	7.68
Nc1nc(O)c2cc(Sc3ccc4ccccc4c3)ccc2n1	7.35
Nc1nc(N)c2c([S+]([O-])c3ccc(Cl)c(Cl)c3)cccc2n1 (stereo unspecified)	4.26
Cc1c(NC(=O)Cc2cccc(Br)c2)ccc2nc(N)nc(N)c12	7.47
Cc1ccc2nc(N)nc(O)c2c1	4.44
Nc1nc(N)c2cc(CNC(=O)c3ccc(Cl)c(Cl)c3)ccc2n1	7
Nc1nc(S)nc2ccc(Sc3ccc4ccccc4c3)cc12	5.52
Sc1nc(S)c2cc(Sc3ccc4ccccc4c3)ccc2n1	5.05
Nc1nc(N)c2c([S+]([O-])c3ccc4ccccc4c3)cccc2n1 (stereo unspecified)	4.35
Nc1nc(N)c2c(CCc3ccc4ccccc4c3)cccc2n1	7.7
Nc1nc(N)c2cc(Sc3ccc(Cl)c(Cl)c3)ccc2n1	7.96
Nc1nc(N)c2c(S(=O)(=O)c3ccc(Cl)c(Cl)c3)cccc2n1	4.24
Cc1c(NC(=O)CCc2ccc(Cl)cc2)ccc2nc(N)nc(N)c12	7.48
O=c1[nH]c(=S)c2cc(Sc3ccc4ccccc4c3)ccc2[nH]1	5.24

More lines, now with the values ahead:

log(1/C)	Structure (SMILES)
4.85	Nc1nc(O)c2c(S(=O)(=O)c3ccc4ccccc4c3)cccc2n1
7.49	Cc1c(NC(=O)Cc2ccc(Br)cc2)ccc2nc(N)nc(N)c12
7	Nc1nc(N)c2c(Cl)c(Br)ccc2n1
6.59	Nc1nc(N)c2cc(CNC(=O)c3cccc(C(F)(F)F)c3)ccc2n1
3.72	Nc1nc(S)nc2ccccc12
7.92	Nc1nc(N)c2c(Cl)c(NC(=O)Cc3ccc(Cl)cc3)ccc2n1
7.64	Nc1nc(N)c2c(Cl)c(NC(=O)Cc3cccc(C(F)(F)F)c3)ccc2n1
6.25	Nc1nc(N)c2c(Cl)cccc2n1
8.3	Nc1nc(N)c2c(Cl)c(NC(=O)Cc3ccc4ccccc4c3)ccc2n1
7.44	Nc1nc(N)c2cc(Sc3cccc(C(F)(F)F)c3)ccc2n1
5.07	O=c1[nH]c(=O)c2cc(Sc3ccc4ccccc4c3)ccc2[nH]1
2.26	c1ccc2ncncc2c1
4.28	CC(=O)Nc1nc(O)c2ccccc2n1
4.26	CC1CCc2nc(N)nc(O)c2C1 (stereo unspecified)
8.15	Nc1nc(N)c2cc([S+]([O-])c3ccc4ccccc4c3)ccc2n1 (stereo unspecified)
5.66	Cc1ccc2nc(N)nc(N)c2c1
8.05	Nc1nc(N)c2cc(S(=O)(=O)c3ccc(Cl)c(Cl)c3)ccc2n1
7.51	Nc1nc(N)c2cc(NC(=O)Cc3ccc(Cl)c(Cl)c3)ccc2n1
4.02	Nc1nc(O)nc2ccccc12
8.3	Nc1nc(N)c2cc(NC(=O)Cc3ccc4ccccc4c3)ccc2n1
5.47	Nc1ncnc2ccc(S(=O)(=O)c3ccc4ccccc4c3)cc12

log(1/C)	Structure (SMILES)
4.57	Nc1ccc2nc(N)nc(N)c2c1
7.38	Nc1nc(O)c2cc([S+]([O-])c3ccc4ccccc4c3)ccc2n1 (stereo unspecified)
8.4	Nc1nc(N)c2cc(S(=O)(=O)c3ccc4ccccc4c3)ccc2n1
5	Nc1nc(N)c2cc(C=O)ccc2n1
4.8	Cc1cccc2nc(N)nc(O)c12
7.44	Nc1nc(N)c2c(Cl)c(NC(=O)CCc3ccc(Cl)cc3)ccc2n1
6.18	Nc1nc(N)c2c(Cl)c(N)ccc2n1
7.7	Nc1nc(N)c2c(CSc3ccc(Cl)cc3)cccc2n1
3.09	Nc1ncnc2ccccc12
7.77	CC(C(=O)Nc1ccc2nc(N)nc(N)c2c1Cl)c1ccccc1 (stereo unspecified)
7	Nc1nc(N)c2cc(CNC(=O)c3ccc4ccccc4c3)ccc2n1
5.4	Nc1nc(N)c2cc(Cl)ccc2n1
7.23	Cc1c(NC(=O)Cc2cccc(C(F)(F)F)c2)ccc2nc(N)nc(N)c12
6.52	Nc1nc(N)c2c(/C=C\c3ccc4ccccc4c3)cccc2n1
7.62	Nc1nc(N)c2c(Cl)c(NC(=O)Cc3ccc(Cl)c(Cl)c3)ccc2n1
7.64	Nc1nc(N)c2c(Cl)c(NC(=O)COc3ccc(Cl)c(Cl)c3)ccc2n1
7.85	Nc1nc(N)c2c(Cl)c(NC(=O)COc3ccc4ccccc4c3)ccc2n1
6.15	Nc1nc(O)c2c(Sc3ccc4ccccc4c3)cccc2n1
7.74	Nc1nc(N)c2cc(NCc3ccc(Cl)c(Cl)c3)ccc2n1
5.28	Nc1nc(N)c2c(/C=C/c3ccc4ccccc4c3)cccc2n1
7.12	Nc1nc(O)c2cc(S(=O)(=O)c3ccc(Cl)c(Cl)c3)ccc2n1
